Experiments:
Assay in all cases: relative viability (nuclei count vs DMSO), 5 days (fraction); higher = more cells survive
[1] = compound: C1COCCN1C2=NC(=NC3=C2OC4=C3C=CC=N4)C5=CC(=CC=C5)NC(=O)C6=CN=C(C=C6)N + COc1cccc2cc(-c3nc([C@H]4CC[C@H](C(=O)O)CC4)n4ncnc(N)c34)[nH]c12 [OSI-027] (partner 0.5 µM)
In short: (§1)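 Values are medians from duplicate plates. Each reflects relative viability, defined as the nuclei count of treated wells over that of vehicle wells. Lung cancer cell lines in 1536-well plates were pin-tool dosed one day after seeding with one drug alone or with a fixed anchor-drug dose plus five library-drug doses (not always all listed) in √10 steps, then fixed, stained and imaged at 4× after 5 days.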

[2] = compound: C1COCCN1C2=NC(=NC3=C2OC4=C3C=CC=N4)C5=CC(=CC=C5)NC(=O)C6=CN=C(C=C6)N + N=C(N)NC(=N)NCCc1ccccc1 [Phenformin] (partner 250 µM)
In short: as §1

SGI-1776 + Bortezomib = compound: CN1CCC(CNc2ccc3ncc(-c4cccc(OC(F)(F)F)c4)n3n2)CC1 [SGI-1776] + CC(C)C[C@H](NC(=O)[C@H](Cc1ccccc1)NC(=O)c1cnccn1)B(O)O [Bortezomib] (partner 0.002 µM)
In short: as §1

Entinostat + Bortezomib = compound: Nc1ccccc1NC(=O)c1ccc(CNC(=O)OCc2cccnc2)cc1 [Entinostat] + CC(C)C[C@H](NC(=O)[C@H](Cc1ccccc1)NC(=O)c1cnccn1)B(O)O [Bortezomib] (partner 0.002 µM)
In short: as §1

Cell Line	relative viability ([1]; first compound 0.02 µM)	relative viability ([1]; first compound 0.06325 µM)	relative viability ([1]; first compound 0.2 µM)	relative viability ([1]; first compound 0.6325 µM)	relative viability ([1]; first compound 2 µM)	relative viability ([2]; first compound 0.02 µM)	relative viability ([2]; first compound 0.06325 µM)	relative viability ([2]; first compound 0.2 µM)	relative viability ([2]; first compound 0.6325 µM)	relative viability ([2]; first compound 2 µM)	relative viability (SGI-1776 + Bortezomib; first compound 0.08 µM)	relative viability (SGI-1776 + Bortezomib; first compound 0.8 µM)	relative viability (SGI-1776 + Bortezomib; first compound 2.53 µM)	relative viability (SGI-1776 + Bortezomib; first compound 8 µM)	relative viability (Entinostat + Bortezomib; first compound 0.02 µM)	relative viability (Entinostat + Bortezomib; first compound 0.06325 µM)	relative viability (Entinostat + Bortezomib; first compound 0.2 µM)	relative viability (Entinostat + Bortezomib; first compound 0.6325 µM)	relative viability (Entinostat + Bortezomib; first compound 2 µM)
NCI-H727	0.542	0.517	0.624	0.588	0.541	0.441	0.629	0.502	0.469	0.458	0.888	1.13	0.855	0.724	0.714	0.965	0.754	0.574	0.329
NCI-H838	0.348	0.381	0.348	0.31	0.278	0.514	0.687	0.485	0.414	0.198	0.848	0.973	0.764	0.353	0.959	1.21	0.947	0.634	0.385
NCI-H1355	0.397	0.401	0.336	0.359	0.363	0.449	0.491	0.461	0.433	0.434	1.2	1.24	1.24	1.03	1.19	1.16	0.951	0.725	0.603
NCI-H1437	0.816	0.844	0.791	0.6	0.535	0.343	0.351	0.286	0.225	0.114	0.587	0.525	0.536	0.352	0.438	0.323	0.239	0.168	0.126
NCI-H1563	0.824	0.766	0.719	0.659	0.706	0.647	0.636	0.654	0.593	0.532	0.934	0.849	0.847	0.692	0.841	0.843	0.908	0.722	0.65
NCI-H1650	0.657	0.617	0.434	0.548	0.397	0.358	0.402	0.413	0.355	0.237	0.217	0.18	0.207	0.181	0.194	0.226	0.2	0.214	0.214
NCI-H1651	0.643	0.812	0.703	0.617	0.472	0.333	0.302	0.315	0.321	0.182	0.976	0.923	0.874	0.889	0.958	0.923	0.921	0.926	0.84
NCI-H1666	0.949	0.816	0.79	0.777	0.546	0.577	0.608	0.473	0.567	0.442	0.81	0.826	0.918	0.56	0.855	0.694	0.741	0.441	0.321

— the supplement of paper PMC10307832
